What all share (format): cell-based
Assay [1] deals with T1, EGFR exon 20 FQEA Ins A763_V764 (Ba/F3 cells) (Homo sapiens, UniProt P00533, INS763FQEA).
T1 construct: expressed in transfected cells; host or cells: Ba/F3 (murine pro-B cells), retroviral transduction, puromycin selection, IL3-independent pool
Nature of the assay: Inhibitor activity on EGFR-dependent cell growth (CellTiter-Glo, 72 h), Ba/F3 EGFR exon 20 FQEA Ins. Particulars: read-out: BaF3 FQEA IC50. From the text: (§1) Example A. Inhibitor Activity on EGFR-Dependent Cell Growth
(§2) Cell lines are generated by transducing Ba/F3 cells with retroviruses containing vectors with EGFR WT, EGFR L858R, EGFR exon 19del, EGFR L858R/C797S, EGFR exon 20 NPG Ins D770_N771, EGFR exon 20 ASV Ins V769_D770, EGFR exon 20 SVD Ins D770_N771, or EGFR exon 20 FQEA Ins A763_V764 genes and a puromycin selection marker. Transduced cells are selected with puromycin for 7 days and are then be transferred into culture media without Interleukin 3 (IL3). EGFR WT cells are maintained with supplemental EGF. Surviving cells are confirmed to express EGFR by Western blot and maintained as a pool. The IC50 date were included in Table 6 and Table 7.
(§3) 1.1 Cells are harvested from flask into cell culture medium and the cell number counted.
(§4) 1.2 Cells are diluted with culture medium to the desired density and 40 μL of cell suspension is added into each well of 384-well cell culture plate and the seeding density is 800 (FQEA, exon 19del), 600 (WT, NPG, L858R/C797S), or 400 (ASV, SVD, L858R) cells/well.
(§5) 2 Compound Preparation and Treatment
(§6) 2.1 Test compounds are dissolved to 10 mM in a DMSO stock solution. 45 μL of stock solution is transferred to a 384 polypropylene plate (pp-plate). Perform 3-fold, 10-point dilution via transferring 15 μL compound into 30 μL DMSO using a TECAN (EVO200) liquid handler.
(§7) 2.2 Spin plates at room temperature at 1,000 RPM for 1 minute.
(§8) 2.3 Transfer 120 nL of diluted compound from compound source plate into the cell plate.
(§9) 2.4 After compound treatment for 72 hours, perform CTG detection for compound treatment plates as described in “Detection” section.
(§10) 3.1 Plates are removed from incubators and equilibrated at room temperature for 15 minutes.
(§11) 3.2 Thaw the CellTiter Glo reagents and allow to equilibrate to room temperature before the experiment.
(§12) 3.3 Add 40 μL of CellTiter-Glo reagent into each well (at 1:1 to culture medium). Then place the plates at room temperature for 30 min followed by reading on EnVision.
(§13) 4.1 Inhibition activity is calculated following the formula below:
(§14) % Inhibition=100×(LumHC−LumSample)/(LumHC−LumLC) • where HC is obtained from cells treated with 0.1% DMSO only; and LC is obtained from culture medium only.
(§15) 4.2 2. Calculate the IC50 by fitting the Curve using Xlfit (v5.3.1.3), equation 201.
(§16) Y=Bottom+(Top−Bottom)/(1+10^((Log IC50−X)*HillSlope))

Assay [2] concerns the target T2, EGFR WT (Ba/F3 cells) (Homo sapiens, UniProt P00533).
T2 construct: expressed in transfected cells; host or cells: Ba/F3 (murine pro-B cells), retroviral transduction, puromycin selection, maintained with EGF
Nature of the assay: Inhibitor activity on EGFR-dependent cell growth (CellTiter-Glo, 72 h), Ba/F3 EGFR WT. Particulars: read-out: BaF3 WT IC50.
Source text: as §1, §2, §3, §4, §5, §6, §7, §8, §9, §10, §11, §12, §13, §14, §15, §16
(In ATP-based viability assays light output follows the ATP content of the culture.)

The target in assay [3] is T3, EGFR exon 20 SVD Ins D770_N771 (Ba/F3 cells) (Homo sapiens, UniProt P00533, INS770SVD).
T3 construct: expressed in transfected cells; host or cells: Ba/F3 (murine pro-B cells), retroviral transduction, puromycin selection, IL3-independent pool
T3 sequence (P00533 with tags, fused parts or gaps INS770SVD): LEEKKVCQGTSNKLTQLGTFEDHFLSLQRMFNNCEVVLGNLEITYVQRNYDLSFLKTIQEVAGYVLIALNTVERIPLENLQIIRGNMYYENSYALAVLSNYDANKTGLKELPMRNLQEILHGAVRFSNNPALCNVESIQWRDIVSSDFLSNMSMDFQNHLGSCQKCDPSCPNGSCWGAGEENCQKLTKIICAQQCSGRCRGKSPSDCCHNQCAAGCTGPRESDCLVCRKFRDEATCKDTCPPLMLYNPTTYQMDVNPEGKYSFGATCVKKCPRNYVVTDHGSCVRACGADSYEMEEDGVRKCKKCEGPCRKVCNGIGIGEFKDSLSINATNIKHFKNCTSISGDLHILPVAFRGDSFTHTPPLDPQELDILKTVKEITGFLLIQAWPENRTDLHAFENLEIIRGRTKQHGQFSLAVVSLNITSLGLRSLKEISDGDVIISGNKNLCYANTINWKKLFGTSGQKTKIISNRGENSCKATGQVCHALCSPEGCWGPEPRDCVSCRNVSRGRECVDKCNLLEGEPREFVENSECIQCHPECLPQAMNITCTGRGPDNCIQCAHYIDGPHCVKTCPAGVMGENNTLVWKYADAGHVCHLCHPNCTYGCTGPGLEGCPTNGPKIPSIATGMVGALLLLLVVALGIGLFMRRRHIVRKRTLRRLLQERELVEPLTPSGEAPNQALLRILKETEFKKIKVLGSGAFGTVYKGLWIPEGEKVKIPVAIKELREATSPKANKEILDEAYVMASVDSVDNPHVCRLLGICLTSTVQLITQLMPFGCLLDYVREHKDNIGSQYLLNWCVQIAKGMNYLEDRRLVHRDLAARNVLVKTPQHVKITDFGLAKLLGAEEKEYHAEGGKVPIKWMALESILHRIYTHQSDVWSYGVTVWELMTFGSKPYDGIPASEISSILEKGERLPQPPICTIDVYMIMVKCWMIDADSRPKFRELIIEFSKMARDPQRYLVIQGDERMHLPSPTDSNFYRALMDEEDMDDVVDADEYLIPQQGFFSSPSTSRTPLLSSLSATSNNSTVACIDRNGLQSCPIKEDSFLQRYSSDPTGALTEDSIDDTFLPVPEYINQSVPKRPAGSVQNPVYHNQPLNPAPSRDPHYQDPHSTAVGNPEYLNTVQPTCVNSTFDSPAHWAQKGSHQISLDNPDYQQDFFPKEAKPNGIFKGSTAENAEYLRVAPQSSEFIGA
Nature of the assay: Inhibitor activity on EGFR-dependent cell growth (CellTiter-Glo, 72 h), Ba/F3 EGFR exon 20 SVD Ins. As to conditions: read-out: BaF3 SVD IC50.
Source text: as §1, §2, §3, §4, §5, §6, §7, §8, §9, §10, §11, §12, §13, §14, §15, §16

In assay [4] the target is T4, EGFR exon 20 ASV Ins V769_D770 (Ba/F3 cells) (Homo sapiens, UniProt P00533, INS769ASV).
T4 construct: expressed in transfected cells; host or cells: Ba/F3 (murine pro-B cells), retroviral transduction, puromycin selection, IL3-independent pool
T4 sequence (P00533 with tags, fused parts or gaps INS769ASV): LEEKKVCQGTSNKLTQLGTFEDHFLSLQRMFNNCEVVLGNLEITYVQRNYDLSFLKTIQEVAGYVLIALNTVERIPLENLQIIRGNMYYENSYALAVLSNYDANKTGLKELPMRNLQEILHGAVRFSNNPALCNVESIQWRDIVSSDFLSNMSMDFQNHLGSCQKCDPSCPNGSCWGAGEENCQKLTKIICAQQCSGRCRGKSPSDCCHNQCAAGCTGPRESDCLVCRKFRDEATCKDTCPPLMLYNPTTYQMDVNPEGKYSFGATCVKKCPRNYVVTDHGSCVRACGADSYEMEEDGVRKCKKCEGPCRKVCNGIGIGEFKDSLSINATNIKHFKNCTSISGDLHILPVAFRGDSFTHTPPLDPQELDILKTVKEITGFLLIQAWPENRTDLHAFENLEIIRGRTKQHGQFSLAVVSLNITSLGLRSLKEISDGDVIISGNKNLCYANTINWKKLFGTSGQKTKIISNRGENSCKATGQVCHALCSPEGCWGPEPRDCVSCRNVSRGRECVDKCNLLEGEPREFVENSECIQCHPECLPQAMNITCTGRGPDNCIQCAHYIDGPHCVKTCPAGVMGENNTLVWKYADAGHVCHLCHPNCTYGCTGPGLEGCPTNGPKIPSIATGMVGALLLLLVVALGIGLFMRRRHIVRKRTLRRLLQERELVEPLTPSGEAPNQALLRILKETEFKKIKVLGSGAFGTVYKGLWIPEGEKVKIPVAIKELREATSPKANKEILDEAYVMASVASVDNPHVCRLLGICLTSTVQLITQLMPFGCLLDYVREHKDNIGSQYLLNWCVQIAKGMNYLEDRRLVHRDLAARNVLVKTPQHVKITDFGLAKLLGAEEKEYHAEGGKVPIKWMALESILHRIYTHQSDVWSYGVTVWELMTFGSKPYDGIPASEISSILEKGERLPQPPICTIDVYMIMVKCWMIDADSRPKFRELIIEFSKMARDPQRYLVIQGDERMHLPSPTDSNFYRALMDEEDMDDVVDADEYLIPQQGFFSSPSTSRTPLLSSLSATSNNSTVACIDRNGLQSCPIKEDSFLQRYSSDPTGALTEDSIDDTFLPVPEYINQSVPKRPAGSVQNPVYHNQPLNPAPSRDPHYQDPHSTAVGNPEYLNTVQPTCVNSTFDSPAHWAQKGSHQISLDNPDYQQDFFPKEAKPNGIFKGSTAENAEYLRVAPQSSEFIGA
Nature of the assay: Inhibitor activity on EGFR-dependent cell growth (CellTiter-Glo, 72 h), Ba/F3 EGFR exon 20 ASV Ins. Particulars: read-out: BaF3 ASV IC50.
Source text: as §1, §2, §3, §4, §5, §6, §7, §8, §9, §10, §11, §12, §13, §14, §15, §16

Our source for the IC50 values is patent US20240101576A1, “HETEROCYCLIC INHIBITORS OF EGFR AND/OR HER2, FOR USE IN THE TREATMENT OF CANCER” (Scorpion Therapeutics, Inc., priority 2020, published 2024).

T2 sequence (P00533 25-1210): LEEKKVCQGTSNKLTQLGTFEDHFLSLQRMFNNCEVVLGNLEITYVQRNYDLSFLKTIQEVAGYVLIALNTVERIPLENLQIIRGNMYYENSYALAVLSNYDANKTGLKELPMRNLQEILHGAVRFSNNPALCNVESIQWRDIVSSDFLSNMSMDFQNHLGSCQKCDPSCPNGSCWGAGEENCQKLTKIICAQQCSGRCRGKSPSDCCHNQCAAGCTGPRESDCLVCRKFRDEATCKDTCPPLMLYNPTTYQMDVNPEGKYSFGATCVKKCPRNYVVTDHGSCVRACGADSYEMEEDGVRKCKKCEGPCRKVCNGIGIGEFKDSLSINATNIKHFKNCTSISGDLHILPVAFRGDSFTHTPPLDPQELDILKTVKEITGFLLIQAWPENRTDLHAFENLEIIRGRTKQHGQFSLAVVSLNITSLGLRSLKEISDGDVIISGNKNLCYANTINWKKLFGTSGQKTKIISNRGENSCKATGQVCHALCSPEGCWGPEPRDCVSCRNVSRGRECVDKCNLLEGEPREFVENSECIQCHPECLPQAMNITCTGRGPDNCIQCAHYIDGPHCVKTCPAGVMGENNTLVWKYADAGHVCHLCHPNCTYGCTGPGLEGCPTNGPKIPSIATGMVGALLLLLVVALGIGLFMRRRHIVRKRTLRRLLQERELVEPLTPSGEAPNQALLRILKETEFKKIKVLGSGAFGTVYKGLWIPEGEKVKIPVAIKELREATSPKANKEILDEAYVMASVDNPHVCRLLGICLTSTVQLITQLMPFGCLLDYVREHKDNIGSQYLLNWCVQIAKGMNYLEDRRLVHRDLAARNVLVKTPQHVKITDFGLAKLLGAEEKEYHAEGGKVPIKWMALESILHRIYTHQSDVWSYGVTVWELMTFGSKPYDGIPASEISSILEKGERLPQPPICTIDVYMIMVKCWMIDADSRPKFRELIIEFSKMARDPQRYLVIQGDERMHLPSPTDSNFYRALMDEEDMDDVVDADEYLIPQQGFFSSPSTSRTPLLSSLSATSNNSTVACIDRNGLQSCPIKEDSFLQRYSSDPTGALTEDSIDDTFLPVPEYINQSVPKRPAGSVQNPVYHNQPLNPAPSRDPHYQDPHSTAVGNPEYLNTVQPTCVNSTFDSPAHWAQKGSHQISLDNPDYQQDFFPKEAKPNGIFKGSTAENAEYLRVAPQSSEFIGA
T1 sequence (P00533 with tags, fused parts or gaps INS763FQEA): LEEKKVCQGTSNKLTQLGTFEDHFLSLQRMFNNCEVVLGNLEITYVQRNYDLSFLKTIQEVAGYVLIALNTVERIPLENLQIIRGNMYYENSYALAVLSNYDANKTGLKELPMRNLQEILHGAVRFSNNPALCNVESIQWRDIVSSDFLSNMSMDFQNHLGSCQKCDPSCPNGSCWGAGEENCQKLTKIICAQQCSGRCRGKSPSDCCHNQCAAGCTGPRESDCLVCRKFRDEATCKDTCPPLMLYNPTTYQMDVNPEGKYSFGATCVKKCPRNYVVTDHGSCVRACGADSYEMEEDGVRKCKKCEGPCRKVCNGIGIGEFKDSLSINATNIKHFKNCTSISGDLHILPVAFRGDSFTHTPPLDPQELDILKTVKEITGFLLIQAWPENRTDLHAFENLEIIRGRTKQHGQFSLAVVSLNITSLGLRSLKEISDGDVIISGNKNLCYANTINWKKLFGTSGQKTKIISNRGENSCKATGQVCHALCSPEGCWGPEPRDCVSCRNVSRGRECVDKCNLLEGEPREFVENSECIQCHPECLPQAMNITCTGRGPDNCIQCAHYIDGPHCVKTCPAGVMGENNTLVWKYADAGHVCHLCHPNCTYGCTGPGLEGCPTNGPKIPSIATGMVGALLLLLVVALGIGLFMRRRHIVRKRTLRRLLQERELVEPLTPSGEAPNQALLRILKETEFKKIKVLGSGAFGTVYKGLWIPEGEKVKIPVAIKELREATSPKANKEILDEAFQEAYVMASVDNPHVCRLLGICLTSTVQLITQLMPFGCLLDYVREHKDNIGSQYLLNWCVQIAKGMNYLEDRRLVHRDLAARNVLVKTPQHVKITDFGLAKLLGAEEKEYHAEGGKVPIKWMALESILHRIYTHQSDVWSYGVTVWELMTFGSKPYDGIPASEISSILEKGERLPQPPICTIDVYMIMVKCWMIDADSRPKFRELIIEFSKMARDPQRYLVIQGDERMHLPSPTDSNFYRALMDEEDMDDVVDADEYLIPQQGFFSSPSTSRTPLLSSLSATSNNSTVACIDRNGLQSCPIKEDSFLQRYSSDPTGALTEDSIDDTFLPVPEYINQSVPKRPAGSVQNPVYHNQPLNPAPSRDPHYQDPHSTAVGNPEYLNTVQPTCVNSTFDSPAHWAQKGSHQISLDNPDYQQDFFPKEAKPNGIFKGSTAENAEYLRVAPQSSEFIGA

Regarding `COc1c(Cl)cccc1Nc1c(-c2ccnc(Nc3ccc(N4CCN(C)CC4)nc3)n2)[nH]c2c1C(=O)NCC2` [compound 518, 3-[(3-chloro-2-methoxyphenyl)amino]-2-(2-{[6-(4-methylpiperazin-1-yl)pyridin-3-yl]amino}pyrimidin-4-yl)-1H,5H,6H,7H-pyrrolo[3,2-c]pyridin-4-one], the IC50 in assay [1] was less than 100 nM; in assay [2], 100 to 1000 nM; in assay [3], less than 100 nM; in assay [4] it was less than 100 nM.
Regarding `COc1c(Cl)cccc1Nc1c(-c2ccnc(NC[C@H]3CCO3)n2)[nH]c2c1C(=O)NCC2` [compound 720], the IC50 in assay [1], in assay [2], in assay [3] and in assay [4] was more than 1000 nM in each case.
Regarding `COc1c(Cl)cccc1Nc1c(-c2ccncc2F)[nH]c2c1C(=O)NC[C@]21CCN(CC(F)(F)F)C1` [compound 818], the IC50 is 100 to 1000 nM in assay [1], more than 1000 nM in assay [2], 100 to 1000 nM in assay [3] and 100 to 1000 nM in assay [4].
For `COc1ccc2nccc(-c3[nH]c4c(c3Nc3cccc(Cl)c3OC)C(=O)NCC43CC3)c2n1` [compound 316], the half-maximal inhibitory concentration (IC50) is less than 100 nM in assay [1], 100 to 1000 nM in assay [2], less than 100 nM in assay [3] and less than 100 nM in assay [4].
With `COc1c(F)cccc1Nc1c(-c2ccnc3[nH]ccc23)[nH]c2c1C(=O)NCC2` [compound 252], the half-maximal inhibitory concentration (IC50) was 100 to 1000 nM in assay [1], more than 1000 nM in assay [2], 100 to 1000 nM in assay [3] and 100 to 1000 nM in assay [4].
On to `COc1c(F)cccc1Nc1c(-c2ccnc3cnc(OC4CC4)nc23)[nH]c2c1C(=O)NCC2` [compound 413], for which the IC50 in assay [1], in assay [2], in assay [3] and in assay [4] was less than 100 nM each time.
Take `COc1c(Cl)cccc1Nc1c(-c2ccncc2F)[nH]c2c1C(=O)NC[C@@H]2CCF` [compound 813]: the IC50 in assay [1] is 100 to 1000 nM; in assay [2] it was more than 1000 nM; in assay [3] it was 100 to 1000 nM; in assay [4] it was 100 to 1000 nM.
Take `COc1c(F)cccc1Nc1c(-c2ccncc2F)[nH]c2c1C(=O)NC[C@@H]2C[C@@H]1CCO1` [Compound 422b, (7S)-3-[(3-fluoro-2-methoxyphenyl)amino]-2-(3-fluoropyridin-4-yl)-7-[(2R)-oxetan-2-ylmethyl]-1H,5H,6H,7H-pyrrolo[3,2-c]pyridin-4-one]: the IC50 in assay [1] was 100 to 1000 nM; in assay [2] it was more than 1000 nM; in assay [3], 100 to 1000 nM; in assay [4], 100 to 1000 nM.
Turning to `COc1c(Cl)cccc1Nc1c(-c2ccncc2F)[nH]c2c1C(=O)NC[C@H]2CCN(C)C` [compound 486, (7R)-3-[(3-chloro-2-methoxyphenyl)amino]-7-[2-(dimethylamino)ethyl]-2-(3-fluoropyridin-4-yl)-1H,5H,6H,7H-pyrrolo[3,2-c]pyridin-4-one], the 50% inhibitory concentration (IC50) in assay [1], in assay [2], in assay [3] and in assay [4] was more than 1000 nM in each case.
As to `COc1ccc2nccc(-c3[nH]c4c(c3Nc3cccc(Cl)c3OC)C(=O)NC[C@@H]4C)c2n1` [310b], the IC50 in assay [1], in assay [2], in assay [3] and in assay [4] was less than 100 nM each time.
Regarding `COc1c(Cl)cccc1Nc1c(-c2ccnc(Nc3cnn(C(C)C)c3)n2)[nH]c2c1C(=O)NCC2` [compound 516, 3-[(3-chloro-2-methoxyphenyl)amino]-2-{2-[(1-isopropylpyrazol-4-yl)amino]pyrimidin-4-yl}-1H,5H,6H,7H-pyrrolo[3,2-c]pyridin-4-one], the IC50 in assay [1] was less than 100 nM; in assay [2] it was 100 to 1000 nM; in assay [3] it was less than 100 nM; in assay [4] it was less than 100 nM.
For `COc1ncc2nccc(-c3[nH]c4c(c3Nc3cccc(Cl)c3OC)C(=O)N[C@@H](C(F)(F)F)C4)c2n1` [Compound 507, (6R)-3-[(3-chloro-2-methoxyphenyl)amino]-2-{2-methoxypyrido[3,2-d]pyrimidin-8-yl}-6-(trifluoromethyl)-1H,5H,6H,7H-pyrrolo[3,2-c]pyridin-4-one], the 50% inhibitory concentration (IC50) is less than 100 nM in assay [1], 100 to 1000 nM in assay [2], less than 100 nM in assay [3] and less than 100 nM in assay [4].
For the compound `COc1c(Cl)cccc1Nc1c(-c2ccnc(Nc3cc(C)n(C)n3)n2)[nH]c2c1C(=O)NCC2` [compound 513, 3-[(3-chloro-2-methoxyphenyl)amino]-2-{2-[(1,5-dimethylpyrazl-3-yl)amino]pyrimidin-4-yl}-1H,5H,6H,7H-pyrrolo[3,2-c]pyridin-4-one], the 50% inhibitory concentration (IC50) in assay [1], in assay [2], in assay [3] and in assay [4] was less than 100 nM each time.
For `COc1c(Cl)cccc1Nc1c(-c2ccnc3cc(F)cnc23)[nH]c2c1C(=O)NCC2` [Compound 826], the IC50 was less than 100 nM in assay [1], 100 to 1000 nM in assay [2], less than 100 nM in assay [3] and less than 100 nM in assay [4].
On to `COc1c(Cl)cccc1Nc1c(-c2ccnc3ccc(OCC4CCC4)nc23)[nH]c2c1C(=O)NCC2` [compound 756, 3-[(3-chloro-2-methoxyphenyl)amino]-2-[6-(cyclobutylmethoxy)-1,5-naphthyridin-4-yl]-1H,5H,6H,7H-pyrrolo[3,2-c]pyridin-4-one], for which the IC50 in assay [1] was 100 to 1000 nM; in assay [2], 100 to 1000 nM; in assay [3] it was 100 to 1000 nM; in assay [4] it was less than 100 nM.
In the case of `COc1ncc2nccc(-c3[nH]c4c(c3Nc3cccc(F)c3OC)C(=O)NCC43CC3)c2n1` [compound 379], the IC50 is less than 100 nM in assay [1], 100 to 1000 nM in assay [2], less than 100 nM in assay [3] and less than 100 nM in assay [4].
On to `CCc1c(F)cccc1Nc1c(-c2ccnc3cnc(OC)nc23)[nH]c2c1C(=O)NCC2` [Compound 791, 3-[(2-ethyl-3-fluorophenyl)amino]-2-[2-methoxypyrido[3,2-d]pyrimidin-8-yl]-1H,5H,6H,7H-pyrrolo[3,2-c]pyridin-4-one], for which the IC50 is 100 to 1000 nM in assay [1], 100 to 1000 nM in assay [2], less than 100 nM in assay [3] and less than 100 nM in assay [4].
For the compound `COCC[C@@H]1CNC(=O)c2c(Nc3cccc(Cl)c3OC)c(-c3ccncn3)n(C)c21` (single isomer, unassigned) [Compound 796], the IC50 in assay [1], in assay [2], in assay [3] and in assay [4] was more than 1000 nM each time.
As for `COc1c(Cl)cccc1Nc1c(-c2ccnc(-c3ccn(C)n3)n2)[nH]c2c1C(=O)NCC2` [compound 544, 3-[(3-chloro-2-methoxyphenyl)amino]-2-[2-(1-methylpyrazol-3-yl)pyrimidin-4-yl]-1H,5H,6H,7H-pyrrolo[3,2-c]pyridin-4-one], the IC50 was 100 to 1000 nM in assay [1], more than 1000 nM in assay [2], 100 to 1000 nM in assay [3] and 100 to 1000 nM in assay [4].
On to `COc1c(Cl)cccc1Nc1c(-c2ccnc(N)n2)[nH]c2c1C(=O)NC(CO)C2` (centres unmarked) [Compound 751, 2-(2-aminopyrimidin-4-yl)-3-[(3-chloro-2-methoxyphenyl)amino]-6-(hydroxymethyl)-1H,5H,6H,7H-pyrrolo[3,2-c]pyridin-4-one], for which the half-inhibitory concentration (IC50) in assay [1] is 100 to 1000 nM; in assay [2], more than 1000 nM; in assay [3], 100 to 1000 nM; in assay [4], 100 to 1000 nM.

One may read the IC50 as the concentration that inhibits the measured activity by half.
